From paper PMC10272112 (Nature Communications, 2023)
Values joined by “and” are separate entries in the source; they are usually repeats but may differ in a detail not shown here. Identical values can stand only once.

Legend:
HDAC1 = HDAC1 (Homo sapiens, UniProt Q13547); assay: HDAC-Glo assay; format: biochemical; design: purchased BPS Bioscience 50051; settings: for EC50: read-out: log EC50 from dose-dependent HDAC inhibition curves (converted)
Procedure: To validate the inhibition of HDACs by LA and LM and elaborate on the structure-activity relationship (SAR) of enantiomers as well as oxidized versus reduced forms of the molecules, we performed enzyme activity assays for recombinant HDAC1,2,3,6,8 as well as FRET-based binding assay for recombinant HDAC10.
The experiments were performed according to ref. [48]. […] Drug dosing was performed with a D300e Digital Dispenser (Tecan). HDACs (7 ng/mL for HDAC1, 25 ng/mL for HDAC2, 200 ng/mL for HDAC3/Ncor2 complex, 100 ng/mL for HDAC6, 200 ng/mL for HDAC8) and inhibitors were incubated together at room temperature (RT) for 30 min. After the addition of the HDAC-Glo™ I/II reagent, plates were shaken (800 rpm orbital shaker, 30 s), centrifuged (300 g, 1 min), and incubated at RT for 30 min. Luminescence was detected with a CLARIOstar (BMG Labtech) plate reader.

[1] = biological target: T1, HDAC6-catalytic domain 2 (HDAC6CD2) (Homo sapiens, UniProt Q9UBN7); assay: NanoBRET intracellular target engagement assay; format: cell-based
T1 construct: HDAC6-catalytic domain 2 (HDAC6CD2); expressed in transfected cells
T1 sequence (Q9UBN7 482-800 limits assumed): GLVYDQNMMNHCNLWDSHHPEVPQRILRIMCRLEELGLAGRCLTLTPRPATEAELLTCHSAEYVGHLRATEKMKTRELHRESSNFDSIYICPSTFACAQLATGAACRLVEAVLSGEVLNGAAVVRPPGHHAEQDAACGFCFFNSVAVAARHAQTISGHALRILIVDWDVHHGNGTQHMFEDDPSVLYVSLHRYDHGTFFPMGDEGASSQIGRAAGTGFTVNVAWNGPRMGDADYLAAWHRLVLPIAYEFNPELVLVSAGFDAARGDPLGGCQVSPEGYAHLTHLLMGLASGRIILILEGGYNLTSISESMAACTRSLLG
Procedure: For the production of transfected HeLa mono-clones stably expressing HDAC-nanoBRET fusion proteins of HDAC10 and HDAC6-catalytic domain 2 (HDAC6CD2), plasmids expressing a fusion of HDAC10 with nanoluciferase were obtained from Promega (N2170). HeLa cells (0.75 × 10^6) were seeded in a 6 cm dish and were transfected with a mix of 10 μg plasmid and 3 μL Fugene in 200 μL OptiMEM after 24 h. The intracellular target engagement assay on HDAC10 and HDAC6CD2 was performed using the NanoBRET™ Target Engagement Intracellular HDAC Assay (Promega N2081 and N2090) as described by the kit manufacturer in a 96-well plate (Corning 3600) format with 2 × 10^4 cells per well and a tracer concentration of 0.3 μM. Inhibitors were dosed with a D300e Digital Dispenser (Tecan). DMSO concentrations were normalized to 0.5% for all wells. After dosing, assay plates were shaken at 800 rpm and incubated at 37 °C for 2 h followed by measurement of 450 nm and 650 nm luminescence (80 nm bandwidth) at room temperature with a CLARIOstar (BMG Labtech) plate reader 2 min after NanoLuc substrate addition.

[2] = 0.5 M TCEP, log10 M -3.30103, 3 technical replicates
[3] = 0.5 M TCEP, log10 M -3.82945, 3 technical replicates
[4] = 0.5 M TCEP, log10 M -4.35788, 3 technical replicates
[5] = 0.5 M TCEP, log10 M -4.88629, 3 technical replicates
[6] = 0.5 M TCEP, log10 M -5.41477, 3 technical replicates
[7] = 0.5 M TCEP, log10 M -5.94309, 3 technical replicates
[8] = 0.5 M TCEP, log10 M -6.47756, 3 technical replicates
[9] = 0.5 M TCEP, log10 M -6.87615, 3 technical replicates

Chain of HDAC1 (Q13547 whole entry): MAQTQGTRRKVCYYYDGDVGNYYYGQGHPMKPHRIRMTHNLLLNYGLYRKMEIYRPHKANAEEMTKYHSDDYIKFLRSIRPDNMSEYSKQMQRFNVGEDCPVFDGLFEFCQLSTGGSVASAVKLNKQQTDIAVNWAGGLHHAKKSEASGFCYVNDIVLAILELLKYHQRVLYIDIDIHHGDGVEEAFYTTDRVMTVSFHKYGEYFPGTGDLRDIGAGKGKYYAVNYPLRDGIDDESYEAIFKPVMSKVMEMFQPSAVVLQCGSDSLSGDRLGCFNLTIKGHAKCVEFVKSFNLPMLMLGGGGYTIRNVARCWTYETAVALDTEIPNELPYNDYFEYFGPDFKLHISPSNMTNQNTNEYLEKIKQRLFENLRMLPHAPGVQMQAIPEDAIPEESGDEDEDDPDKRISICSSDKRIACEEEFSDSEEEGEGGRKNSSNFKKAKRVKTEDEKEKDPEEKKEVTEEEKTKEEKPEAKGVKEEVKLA

O=C(O)CCCCC1CCSS1 (racemic) [(R/S)-LA, (R/S)-lipoic acid]
HDAC enzymatic activity (normalized luminescence) (HDAC1; [2]): 2.253 and 2.122 and 2.222
raw luminescence signal, HDAC1 inhibition (HDAC1; [2]): 9033 and 8544 and 8916
HDAC enzymatic activity (normalized luminescence) (HDAC1; [3]): 6.603 and 6.6 and 6.7561
raw luminescence signal, HDAC1 inhibition (HDAC1; [3]): 25221 and 25211 and 25792
HDAC enzymatic activity (normalized luminescence) (HDAC1; [4]): 20.3513 and 20.4988 and 20.2352
raw luminescence signal, HDAC1 inhibition (HDAC1; [4]): 76389 and 76938 and 75957
HDAC enzymatic activity (normalized luminescence) (HDAC1; [5]): 44.8545 and 45.009 and 46.4019
raw luminescence signal, HDAC1 inhibition (HDAC1; [5]): 167582 and 168157 and 173341
HDAC enzymatic activity (normalized luminescence) (HDAC1; [6]): 75.7737 and 78.1543 and 78.9575
raw luminescence signal, HDAC1 inhibition (HDAC1; [6]): 282653 and 291513 and 294502
HDAC enzymatic activity (normalized luminescence) (HDAC1; [7]): 89.586 and 92.205 and 92.7553
raw luminescence signal, HDAC1 inhibition (HDAC1; [7]): 334058 and 343805 and 345853
HDAC enzymatic activity (normalized luminescence) (HDAC1; [8]): 95.6344 and 96.1277 and 99.0353
raw luminescence signal, HDAC1 inhibition (HDAC1; [8]): 356568 and 358404 and 369225
HDAC enzymatic activity (normalized luminescence) (HDAC1; [9]): 97.1294 and 100.284 and 101.314
raw luminescence signal, HDAC1 inhibition (HDAC1; [9]): 362132 and 373872 and 377707
HDAC enzymatic activity (normalized luminescence) (HDAC1; no TCEP, log10 M -3.30103, 3 technical replicates): 34.5758 and 34.0329 and 33.4507
HDAC enzymatic activity (normalized luminescence) (HDAC1; no TCEP, log10 M -3.82945, 3 technical replicates): 69.9436 and 70.5688 and 71.7678
HDAC enzymatic activity (normalized luminescence) (HDAC1; no TCEP, log10 M -4.35788, 3 technical replicates): 91.6791 and 90.2694 and 91.9437
HDAC enzymatic activity (normalized luminescence) (HDAC1; no TCEP, log10 M -4.88629, 3 technical replicates): 97.2441 and 96.7873 and 98.245
HDAC enzymatic activity (normalized luminescence) (HDAC1; no TCEP, log10 M -5.41477, 3 technical replicates): 102.844 and 103.267 and 105.666
HDAC enzymatic activity (normalized luminescence) (HDAC1; no TCEP, log10 M -5.94309, 3 technical replicates): 103.58 and 104.044 and 104.328
HDAC enzymatic activity (normalized luminescence) (HDAC1; no TCEP, log10 M -6.47756, 3 technical replicates): 103.305 and 103.257 and 103.904
HDAC enzymatic activity (normalized luminescence) (HDAC1; no TCEP, log10 M -6.87615, 3 technical replicates): 102.627 and 100.722 and 100.875
EC50 (HDAC1): 11.4 µM
HDAC1 relative activity (HDAC1; sheet S2b, log conc -3.30103): 1.283 and 1.298 and 1.278
HDAC1 relative activity (HDAC1; sheet S2b, log conc -3.82945): 3.514 and 3.391 and 3.355
HDAC1 relative activity (HDAC1; sheet S2b, log conc -4.35788): 11.0684 and 11.0093 and 10.6578
HDAC1 relative activity (HDAC1; sheet S2b, log conc -4.88629): 24.6308 and 24.7045 and 25.3305
HDAC1 relative activity (HDAC1; sheet S2b, log conc -5.41477): 53.4112 and 53.3483 and 54.8189
HDAC1 relative activity (HDAC1; sheet S2b, log conc -5.94309): 78.0321 and 77.9262 and 78.089
HDAC1 relative activity (HDAC1; sheet S2b, log conc -6.47756): 94.813 and 93.3015 and 93.5028
HDAC1 relative activity (HDAC1; sheet S2b, log conc -6.87615): 93.4945 and 92.0736 and 92.8885
HDAC1 relative activity (HDAC1; sheet S2d, log conc -3.30103): 2.253 and 2.122 and 2.222
HDAC1 relative activity (HDAC1; sheet S2d, log conc -3.82945): 6.603 and 6.6 and 6.7561
HDAC1 relative activity (HDAC1; sheet S2d, log conc -4.35788): 20.3513 and 20.4988 and 20.2352
HDAC1 relative activity (HDAC1; sheet S2d, log conc -4.88629): 44.8545 and 45.009 and 46.4019
HDAC1 relative activity (HDAC1; sheet S2d, log conc -5.41477): 75.7737 and 78.1543 and 78.9575
HDAC1 relative activity (HDAC1; sheet S2d, log conc -5.94309): 89.586 and 92.205 and 92.7553
HDAC1 relative activity (HDAC1; sheet S2d, log conc -6.47756): 95.6344 and 96.1277 and 99.0353
HDAC1 relative activity (HDAC1; sheet S2d, log conc -6.87615): 97.1294 and 100.284 and 101.314
potency of intracellular target engagement and HDAC substrate hyperacetylation ([1]; peer review response): 50 to 300 µM

NC(=O)CCCCC1CCSS1 (racemic) [(R/S)-LM, (R/S)-lipoamide]
raw luminescence signal, HDAC1 inhibition (HDAC1; [2]): 5424 and 5479 and 5403
raw luminescence signal, HDAC1 inhibition (HDAC1; [3]): 13727 and 13267 and 13133
raw luminescence signal, HDAC1 inhibition (HDAC1; [4]): 41841 and 41621 and 40313
raw luminescence signal, HDAC1 inhibition (HDAC1; [5]): 92316 and 92590 and 94920
raw luminescence signal, HDAC1 inhibition (HDAC1; [6]): 199427 and 199193 and 204666
raw luminescence signal, HDAC1 inhibition (HDAC1; [7]): 291058 and 290664 and 291270
raw luminescence signal, HDAC1 inhibition (HDAC1; [8]): 353511 and 347886 and 348635
raw luminescence signal, HDAC1 inhibition (HDAC1; [9]): 348604 and 343316 and 346349
EC50 (HDAC1): 4.62 µM
HDAC1 relative activity (HDAC1; sheet S2b, log conc -3.30103): 71.5662 and 71.4067 and 71.4672
HDAC1 relative activity (HDAC1; sheet S2b, log conc -3.82945): 85.3568 and 84.4089 and 84.9362
HDAC1 relative activity (HDAC1; sheet S2b, log conc -4.35788): 99.571 and 98.7787 and 97.4651
HDAC1 relative activity (HDAC1; sheet S2b, log conc -4.88629): 94.8867 and 95.3188 and 94.2715
HDAC1 relative activity (HDAC1; sheet S2b, log conc -5.41477): 102.996 and 104.783 and 104.694
HDAC1 relative activity (HDAC1; sheet S2b, log conc -5.94309): 100.727 and 101.673 and 102.371
HDAC1 relative activity (HDAC1; sheet S2b, log conc -6.47756): 104.216 and 103.707 and 104.551
HDAC1 relative activity (HDAC1; sheet S2b, log conc -6.87615): 97.8849 and 97.6343 and 99.4595
intracellular binding to HDAC6 ([1]; HeLa cells): dose-dependent intracellular binding
IC50 ([1]; HeLa cells, 2 h, read-out: concentration of half maximal HDAC6 inhibition): 35 µM
